Data published in patent publication US8759343B2 (priority 2007, dated 2014).
Counter-ions that a name gives are not always drawn.

Target: nicotinic receptors comprising the α7 subunit (Rattus norvegicus, UniProt Q05941)
Experiment: biochemical
Assay type: binding

nicotinic receptors comprising the α7 subunit, sequence (Q05941 23-502): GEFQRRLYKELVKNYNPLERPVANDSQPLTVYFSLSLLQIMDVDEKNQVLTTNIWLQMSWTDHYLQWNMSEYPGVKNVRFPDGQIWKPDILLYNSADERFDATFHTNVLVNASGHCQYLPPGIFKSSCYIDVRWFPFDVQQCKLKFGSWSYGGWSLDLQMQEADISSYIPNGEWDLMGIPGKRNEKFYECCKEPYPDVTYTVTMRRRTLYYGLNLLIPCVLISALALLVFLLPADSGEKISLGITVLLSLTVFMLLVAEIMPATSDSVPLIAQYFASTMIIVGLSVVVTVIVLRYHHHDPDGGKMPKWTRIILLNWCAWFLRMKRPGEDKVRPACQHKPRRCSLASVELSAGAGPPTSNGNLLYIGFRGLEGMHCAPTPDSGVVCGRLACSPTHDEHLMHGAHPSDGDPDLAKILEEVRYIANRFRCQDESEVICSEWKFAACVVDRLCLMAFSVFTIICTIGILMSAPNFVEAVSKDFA

Question: Which IC50 does the source give for `c1cc(-c2ccc(C34CCN(CC3)C4)cn2)cc(-n2cccn2)c1` [Compound 113, 4-[6-(3-(pyrazol-1-yl)phenyl)pyridin-3-yl]-1-azabicyclo[2.2.1]heptane] here?
Answer: 4.7 nM

Question: For `c1cnc2ccc(-c3ccc(C45CCN(CC4)C5)cn3)cc2c1` [Compound 12, 6-[5-(1-azabicyclo[2.2.1]hept-4-yl)pyridin-2-yl]quinoline], which IC50 is on record?
Answer: 37.1 nM

Question: For `c1cc2c(cc1-c1ccc(C34CCN(CC3)C4)cn1)OCO2` [Compound 16, 4-[6-(1,3-benzodioxol-5-yl)pyridin-3-yl]-1-azabicyclo[2.2.1]heptane], which IC50 is on record?
Answer: 9.1 nM

Question: With `Fc1cccc(-c2ccc(C34CCN(CC3)C4)cn2)c1` [Compound 19, 4-[6-(3-fluorophenyl)pyridin-3-yl]-1-azabicyclo[2.2.1]heptane] as the compound, how does the IC50 read?
Answer: 13.8 nM

System: not given
Experiment: not given

Question: With `c1cc(-c2ccc(C34CCN(CC3)C4)cn2)cc(-n2cccn2)c1` [Compound 113, 4-[6-(3-(pyrazol-1-yl)phenyl)pyridin-3-yl]-1-azabicyclo[2.2.1]heptane] as the compound, how does the melting point read?
Answer: 114 to 116 °C

Question: For `COc1ccc(OC)c(-c2ccc(C34CCN(CC3)C4)cn2)c1` (as salt: HBr), which melting point is on record?
Answer: 152 to 154 °C

Question: For `CC(=O)c1cccc(-c2ccc(C34CCN(CC3)C4)cn2)c1`, which melting point is on record?
Answer: 95 to 98 °C

Question: With `c1ncc(-c2ccc(C34CCN(CC3)C4)cn2)cn1` as the compound, how does the melting point read?
Answer: 244 to 246 °C

Question: For `c1nc(N2CCOCC2)ncc1-c1ccc(C23CCN(CC2)C3)cn1`, which melting point is on record?
Answer: 226 to 227 °C

Question: With `c1cncc(-c2ccc(C34CCCN(CCC3)C4)cn2)c1` as the compound, how does the melting point read?
Answer: 118 to 120 °C

Question: With `c1ccc(-c2ccc(C34CCCN(CCC3)C4)cn2)cc1` as the compound, how does the melting point read?
Answer: 103 to 105 °C

Question: Which melting point does the source give for `c1cc(-c2ccc(C34CCN(CC3)C4)cn2)c2cccnc2c1` here?
Answer: 129 to 131 °C

Question: With `c1csc(-c2ccc(C34CCN(CC3)C4)cn2)n1` as the compound, how does the melting point read?
Answer: 127 to 129 °C

Question: Which melting point does the source give for `c1cc(-c2ccc(C34CCCN(CCC3)C4)cn2)c[nH]1` here?
Answer: 152 to 154 °C

Question: With `COc1ccc(-c2ccc(C34CCN(CC3)C4)cn2)c(OC)c1` (as salt: HBr) as the compound, how does the melting point read?
Answer: 195 to 197 °C

Question: With `COc1ccc(-c2ccc(C34CCN(CC3)C4)cn2)cc1OC` (as salt: HCl) as the compound, how does the melting point read?
Answer: 247 to 249 °C

Question: Which melting point does the source give for `c1nc(N2CCOCC2)ncc1-c1ccc(C23CCCN(CCC2)C3)cn1` here?
Answer: 189 to 191 °C

Question: For `FC(F)(F)Oc1ccc(-c2ccc(C34CCCN(CCC3)C4)cn2)cc1`, which melting point is on record?
Answer: 120 to 122 °C

Question: With `FC(F)(F)Oc1ccc(-c2ccc(C34CCN(CC3)C4)cn2)cc1` as the compound, how does the melting point read?
Answer: 75 to 76 °C

Question: With `COc1ccc(-c2ccc(C34CCCN(CCC3)C4)cn2)cc1F` as the compound, how does the melting point read?
Answer: 138 to 140 °C

Question: For `COc1cc(F)ccc1-c1ccc(C23CCCN(CCC2)C3)cn1`, which melting point is on record?
Answer: 148 to 150 °C

Question: For `c1cncc(-c2ccc(C34CCN(CC3)C4)cn2)c1`, which melting point is on record?
Answer: 228 to 229 °C

Question: With `c1cc(-c2ccc(C34CCCN(CCC3)C4)cn2)cc(-n2cccn2)c1` as the compound, how does the melting point read?
Answer: 135 to 137 °C

Question: With `c1ccc(Oc2ccc(-c3ccc(C45CCN(CC4)C5)cn3)cc2)cc1` as the compound, how does the melting point read?
Answer: 141 to 143 °C

Question: Which melting point does the source give for `c1ccc2oc(-c3ccc(C45CCN(CC4)C5)cn3)cc2c1` here?
Answer: 164 to 165 °C

Question: With `FC(F)(F)c1cccc(-c2ccc(C34CCCN(CCC3)C4)cn2)c1` (as salt: HBr) as the compound, how does the melting point read?
Answer: 155 to 157 °C

Question: For `Cn1ccc2cc(-c3ccc(C45CCCN(CCC4)C5)cn3)ccc21`, which melting point is on record?
Answer: 166 to 168 °C

Question: Which melting point does the source give for `c1cc2nonc2cc1-c1ccc(C23CCN(CC2)C3)cn1` here?
Answer: 139 to 140 °C

Question: For `Cn1cccc1-c1ccc(C23CCCN(CCC2)C3)cn1`, which melting point is on record?
Answer: 105 to 107 °C

Question: For `c1csc(-c2ccc(C34CCCN(CCC3)C4)cn2)n1`, which melting point is on record?
Answer: 124 to 126 °C

Question: With `c1ccc2c(c1)sc1ccc(-c3ccc(C45CCCN(CCC4)C5)cn3)cc12` (as salt: HCl) as the compound, how does the melting point read?
Answer: 242 to 244 °C

Question: For `FC(F)(F)c1cc(-c2ccc(C34CCN(CC3)C4)cn2)cc(C(F)(F)F)c1`, which melting point is on record?
Answer: 117 to 119 °C

Question: With `Cc1ccc(-c2ccc(C34CCN(CC3)C4)cn2)cc1` as the compound, how does the melting point read?
Answer: 134 to 136 °C

Question: With `FC(F)(F)c1cc(-c2ccc(C34CCCN(CCC3)C4)cn2)cc(C(F)(F)F)c1` (as salt: HBr) as the compound, how does the melting point read?
Answer: 226 to 228 °C

Question: For `c1cc(-c2ccc(C34CCCN(CCC3)C4)cn2)c2cccnc2c1`, which melting point is on record?
Answer: 147 to 149 °C

Question: Which melting point does the source give for `c1cc(-c2ccc(C34CCN(CC3)C4)cn2)c[nH]1` (as salt: HCl) here?
Answer: 324 to 326 °C

Question: For `c1ccc2oc(-c3ccc(C45CCCN(CCC4)C5)cn3)cc2c1`, which melting point is on record?
Answer: 152 to 154 °C

Question: Which melting point does the source give for `COc1cc(F)cc(-c2ccc(C34CCN(CC3)C4)cn2)c1` here?
Answer: 95 to 97 °C

Question: For `c1ccc2cc(-c3ccc(C45CCN(CC4)C5)cn3)ccc2c1`, which melting point is on record?
Answer: 154 to 156 °C

Question: With `COc1cccc(-c2ccc(C34CCN(CC3)C4)cn2)c1F` as the compound, how does the melting point read?
Answer: 144 to 146 °C

Question: With `Fc1ccc(-c2ccc(C34CCN(CC3)C4)cn2)cc1F` as the compound, how does the melting point read?
Answer: 85 to 87 °C

Question: Which melting point does the source give for `c1ccc(Oc2ccc(-c3ccc(C45CCCN(CCC4)C5)cn3)cc2)cc1` here?
Answer: 129 to 131 °C

Question: Which melting point does the source give for `Fc1ccc(-c2ccc(C34CCCN(CCC3)C4)cn2)cn1` here?
Answer: 121 to 122 °C

Question: With `c1ccc2c(c1)oc1c(-c3ccc(C45CCCN(CCC4)C5)cn3)cccc12` as the compound, how does the melting point read?
Answer: 142 to 144 °C

Question: With `COc1ccccc1-c1ccc(C23CCN(CC2)C3)cn1` (as salt: HBr) as the compound, how does the melting point read?
Answer: 114 to 116 °C

Question: For `c1cc2c(cc1-c1ccc(C34CCCN(CCC3)C4)cn1)OCO2`, which melting point is on record?
Answer: 124 to 126 °C

Question: For `COc1cccc(-c2ccc(C34CCN(CC3)C4)cn2)c1`, which melting point is on record?
Answer: 87 to 89 °C

Question: For `COc1ccc(-c2ccc(C34CCN(CC3)C4)cn2)cc1F`, which melting point is on record?
Answer: 125 to 126 °C

Question: For `c1ccc(-c2ccc(C34CCN(CC3)C4)cn2)cc1`, which melting point is on record?
Answer: 126 to 128 °C

Question: With `Fc1cc(-c2ccc(C34CCN(CC3)C4)cn2)ccc1-c1ccccc1` as the compound, how does the melting point read?
Answer: 153 to 155 °C

Question: For `COc1ncc(-c2ccc(C34CCCN(CCC3)C4)cn2)c(OC)n1`, which melting point is on record?
Answer: 81 to 83 °C

Question: With `COc1ccncc1-c1ccc(C23CCN(CC2)C3)cn1` as the compound, how does the melting point read?
Answer: 97 to 99 °C

Question: With `COc1ccc(OC)c(-c2ccc(C34CCCN(CCC3)C4)cn2)c1` as the compound, how does the melting point read?
Answer: 101 to 103 °C

Question: With `COc1ccc(-c2ccc(C34CCCN(CCC3)C4)cn2)c(OC)c1` (as salt: HBr) as the compound, how does the melting point read?
Answer: 198 to 200 °C

Question: With `c1cc2c(cc1-c1ccc(C34CCN(CC3)C4)cn1)OCO2` [Compound 16, 4-[6-(1,3-benzodioxol-5-yl)pyridin-3-yl]-1-azabicyclo[2.2.1]heptane] as the compound, how does the melting point read?
Answer: 256 to 258 °C

Question: With `COc1ccc(-c2ccc(C34CCN(CC3)C4)cn2)cc1` as the compound, how does the melting point read?
Answer: 160 to 162 °C

Question: Which melting point does the source give for `c1cc(-c2ccc(C34CCN(CC3)C4)cn2)co1` here?
Answer: 279 to 281 °C

Question: With `c1ncc(-c2ccc(C34CCCN(CCC3)C4)cn2)cn1` as the compound, how does the melting point read?
Answer: 139 to 141 °C

Question: Which melting point does the source give for `CC(C)(C)OC(=O)N1CCN(c2ccc(-c3ccc(C45CCCN(CCC4)C5)cn3)cn2)CC1` here?
Answer: 202 to 204 °C

Question: With `COc1cccc(-c2ccc(C34CCCN(CCC3)C4)cn2)c1` (as salt: HCl) as the compound, how does the melting point read?
Answer: 267 to 269 °C

Question: For `Fc1cccc(-c2ccc(C34CCN(CC3)C4)cn2)c1` [Compound 19, 4-[6-(3-fluorophenyl)pyridin-3-yl]-1-azabicyclo[2.2.1]heptane], which melting point is on record?
Answer: 88 to 90 °C

Question: For `FC(F)(F)Oc1cccc(-c2ccc(C34CCN(CC3)C4)cn2)c1` (as salt: HCl), which melting point is on record?
Answer: 152 to 154 °C

Question: For `Cn1cccc1-c1ccc(C23CCN(CC2)C3)cn1` (as salt: HCl), which melting point is on record?
Answer: 248 to 250 °C

Question: For `COc1cc(F)ccc1-c1ccc(C23CCN(CC2)C3)cn1`, which melting point is on record?
Answer: 169 to 170 °C

Question: Which melting point does the source give for `c1ccc2ncc(-c3ccc(C45CCCN(CCC4)C5)cn3)cc2c1` here?
Answer: 160 to 162 °C

Question: Which melting point does the source give for `Fc1cc(-c2ccc(C34CCCN(CCC3)C4)cn2)ccc1-c1ccccc1` here?
Answer: 144 °C
